Drawing on patent publication US8377944B2, “Thienopyrimidine derivatives” (ASKA Pharmaceutical Co., Ltd., priority 2005, dated 2013), this text covers IC50 for 3 molecules.

In general, IC50 refers to the midpoint of a concentration-inhibition curve.

For experiment [1], the target named is T1, human recombinant PDE9 protein (Homo sapiens, UniProt O76083).
T1 construct: made in house; host or cells: COS-1 cells, transient transfection of pcDNA 3.1(+); supernatant of the cell homogenate
Put plainly: Measurement of PDE9-inhibiting activity. Type of experiment: biochemical. As to conditions: human recombinant PDE9, [3H]-cGMP substrate; read-out: Inhibitory Activity (IC50 value) PDE 9. The source says: (1) Measurement of PDE9-Inhibiting Activity:
1) Preparation of Human Recombinant PDE9 Protein
Based on the base sequence of hsPDE9A1 registered with GenBank database (accession No.: AF048837), hsPDE9A1 fragment was amplified by polymerase chain reaction under the following conditions, using the following sequence (Amasham Pharmacia Biotech) as the primer and Human Prostate […] cDNA library (CLONTECH) as the template DNA, with Pfu Turbo DNA polymerase ([…]):
hPDE9-5A primer: […] [SEQ ID NO: 1]
hPDE9-3A primer: […] [SEQ ID NO: 2]
PCR condition: [95° C., 5 min]×1 cycle, [(95° C., 1 min), (58° C., 2 min), (72° C., 3 min)]×25 cycle, [72° C., 10 min]×1 cycle
Thus obtained hsPDE9A1 fragment was given a restricted enzymatic treatment with NheI and NotI, and thereafter inserted into pcDNA 3.1(+) expression vector (Invitrogen) to let it serve as a human PDE9 expression vector.
Human PDE9 expression vector-transformed Escherichia coli was mass incubated to produce a large amount of PDE9 expression vector, which was transiently transfected into COS-1 cells, with LIPOFECTAMINE 2000 Reagent (GIBCO). […]
To 150 μL of buffer B (70 mmol/L Tris-HCl, pH7.5; 16.7 mmol/L MgCl2, 33.3 nmol/L [^3H]-cGMP) solution containing [^3H]-cGMP (specific activity=244.2 GBq/mmol) at a concentration of 33.3 nmol/L, 50 μL of a solution of the compound to be evaluated (formed by dissolving the compound in DMSO and diluting it with distilled water to DMSO concentration of 5%) and 50 μL of the PDE9 protein solution as prepared in the above, as diluted with buffer C (40 mmol/L Tris-HCl, pH7.5, 15 mmol/L benzamidine, 15 mmol/L 2-mercaptoethanol, 1 μg/mL Pepstatin A, 1 μg/mL Leupeptin) by 1,500×, were added under cooling with ice. […] Thereafter [^3H]-guanosine was eluted with 3 mL of 3 mol/L aqueous ammonia and its radiation activity was measured with liquid scintillation counter.
PDE9 inhibition of the tested compound can be calculated by the following formula: […]
From the inhibition ratios at various concentration levels of each tested compound, its IC50 value against PDE9 was determined.

Experiment [2] has as its target T2, human recombinant PDE5 protein (Homo sapiens, UniProt O76074).
T2 construct: made in house; host or cells: COS-1 cells, transient transfection of pcDNA 3.1(+); supernatant of the cell homogenate
Put plainly: Measurement of PDE5-inhibiting activity. Type of experiment: biochemical. Conditions: human recombinant PDE5, [3H]-cGMP substrate; read-out: Inhibitory Activity (IC50 value) PDE 5. The source says:
(2) Measurement of PDE5-Inhibiting Activity:
1) Preparation of Human Recombinant PDE5 Protein
Based on the base sequence of hsPDE5A1 registered with GenBank database (accession No.: NM_001083), hsPDE5A1 fragment was amplified by polymerase chain reaction under the following conditions, using the following sequence (SIGMA GENOSYS) as the primer and Human Prostate […] cDNA library (CLONTECH) as the template DNA, with KDD plus DNA polymerase (TOYOBO): […]
hPDE5-5′E primer: […] [SEQ ID NO: 3] […]
hPDE5-3′ primer: […] [SEQ ID NO: 4]
PCR condition: [94° C., 2 min]×1 cycle, [(94° C., 30 sec), (65° C., 30 sec), (68° C., 3 min)]×25 cycle, [68° C., 6 min]×1 cycle Thus obtained hsPDE5A1 fragment was given a restricted enzymatic treatment with XBaI and EcoRI, and thereafter inserted into pcDNA 3.1(+) expression vector (Invitrogen) to let it serve as a human PDE5 expression vector.
Human PDE5 expression vector-transformed Escherichia coli was mass incubated to produce a large amount of PDE5 expression vector, which was transiently transfected into COS-1 cells, with LIPOFECTAMINE 2000 Reagent (GIBCO). The cells were homogenized in ice-cooled buffer A and centrifuged at 4° C., 14,000×g for 10 minutes. The supernatant was isolated to provide human recombinant PDE5 protein solution.
2) Measurement of PDE5-Inhibiting Activity
By a method similar to the measurement of PDE9-inhibiting activity, PDE5-inhibiting activity of the test compounds was measured, their inhibition was calculated and IC50 value to PDE5 of each of the compounds was determined. The results are shown in the following Table A, concurrently with the compounds' IC50 values against PDE9.

T1 sequence (O76083 whole entry): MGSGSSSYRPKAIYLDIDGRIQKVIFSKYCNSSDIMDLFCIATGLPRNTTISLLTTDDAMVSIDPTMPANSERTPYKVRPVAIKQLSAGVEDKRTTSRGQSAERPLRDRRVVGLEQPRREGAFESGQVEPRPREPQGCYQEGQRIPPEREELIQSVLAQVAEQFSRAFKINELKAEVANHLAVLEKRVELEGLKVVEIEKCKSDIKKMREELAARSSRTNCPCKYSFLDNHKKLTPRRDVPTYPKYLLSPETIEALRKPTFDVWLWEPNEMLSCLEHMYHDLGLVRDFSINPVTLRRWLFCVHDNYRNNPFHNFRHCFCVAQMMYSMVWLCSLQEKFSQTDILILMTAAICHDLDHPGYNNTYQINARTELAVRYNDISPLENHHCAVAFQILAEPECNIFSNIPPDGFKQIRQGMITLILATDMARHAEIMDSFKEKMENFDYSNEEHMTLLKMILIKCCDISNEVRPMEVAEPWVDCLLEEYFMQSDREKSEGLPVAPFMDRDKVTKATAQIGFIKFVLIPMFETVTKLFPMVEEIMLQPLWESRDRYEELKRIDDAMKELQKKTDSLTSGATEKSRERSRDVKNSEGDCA

For the molecule `Cc1c(C(=O)O)sc2nc(Cc3ccc(F)c(Cl)c3)[nH]c(=O)c12` [Example 52, 2-(3-Chloro-4-fluorobenzyl)-5-methyl-4-oxo-3,4-dihydrothieno[2,3-d]pyrimidine-6-carboxylic acid], the IC50 is 38 nM in experiment [1] and 3420 nM in experiment [2].

With “2-(Cyclopent-1-enylmethyl)-5-methyl-4-thioxo-3,4-dihydrothieno[2,3-d]pyrimidine-6-carboxylic acid and 2-cyclopentylidenemethyl-5-methyl-4-thioxo-3,4-dihydrothieno-[2,3-d]pyrimidine-6-carboxylic acid [Example 117]”, the IC50 in experiment [1] was 24 nM; in experiment [2], 843 nM.

Consider `Cc1c(C(=O)O)sc2nc(Cc3ccc(Cl)s3)[nH]c(=O)c12` [Example 3, 2-(5-Chlorothiophen-2-ylmethyl)-5-methyl-4-oxo-3,4-dihydrothieno[2,3-d]pyrimidine-6-carboxylic acid], for which the IC50 was 34 nM in experiment [1] and 6900 nM in experiment [2].
